Converted amounts (≈) assume the structure as drawn. Residues, ends and D or L forms follow the SMILES beside them.
Assays:
[1] = system: Staphylococcus aureus MTCC 9542; type: cell-based; details: lowest peptide concentration required to kill entire bacteria, 24 hrs, NA = not active up to the highest concentration tested
Text: (§1) Antimicrobial activity: Broth dilution method [39] was used to assess the antimicrobial activity of the peptides. Bacterial strains used for in vitro antibacterial assay were Staphylococcus aureus (MTCC 9542), Bacillus subtilis (MTCC 14416), Bacillus coagulans (ATCC 7050), Methicillin-resistant Staphylococcus aureus (MRSA) (ATCC 43300), Streptococcus mutans (MTCC 497), Streptococcus gordonii (MTCC 2695), Vibrio cholerae (MCV09), Escherichia coli (ATCC 25922), Vancomycin-resistant enterococcus (VRE) (ATCC 29212) and gram-negative fish pathogens Aeromonas hydrophila (ATCC 7966) and Aeromonas sobria (ATCC 43979). Bacterial cultures were grown in Muller Hinton broth (MHB) (Hi-media) by overnight incubation at 37° C. with constant shaking. Microbial cultures having 10^6 CFU/ml were made from OD600: 0.6 cultures. 400 μM stock solutions of peptides were prepared in autoclaved double distilled water and diluted in MHB to make concentrations ranging from 0.7 to 100 μM. Bacterial inoculum without peptide was used as the negative control.

[2] = system: Bacillus subtilis MTCC 14416; type: cell-based; details: lowest concentration killing entire bacteria, 24 hrs
Text: as §1

[3] = system: Bacillus coagulans ATCC 7050; type: cell-based; details: lowest concentration killing entire bacteria, 24 hrs
Text: as §1

MRSA ATCC 43300 = type: cell-based, Methicillin-resistant Staphylococcus aureus; details: lowest concentration killing entire bacteria, 24 hrs
Text: as §1

gram-negative bacteria = assay: MIC range over the tested gram-negative bacteria; type: cell-based
Text: as §1

human erythrocytes = type: cell-based; details: 60 min, at the peptide's MIC for Staphylococcus aureus MTCC 9542 (MIC in parenthesis)
Experimental: Hemolytic Activity: Hemolytic assay was carried out as previously described. Briefly, 10% (v/v) suspensions of fresh human erythrocytes in phosphate buffered saline (pH 7.2) were incubated with different concentrations (100 μM-0.7 μM) of B1/1 COOH & B1/2 COOH, B1/1 CONH2 & B1/2 CONH2 and cyclic B1/1 CONH2 & cyclic B1/2 CONH2 and incubated at 3^7° C. for 60 min. The cells were centrifuged (3000×g) for 5 min, and absorbance of the supernatant was measured at 595 nm. Hemolysis caused by 10% Triton X-100 was taken as positive control. Percentage hemolysis was calculated by measuring the mean amount of hemoglobin released as a result of lysis of erythrocyte from three independent experiments.

VRE ATCC 29212 = details: lowest concentration killing entire bacteria, 24 hrs
Text: as §1

CC[C@H](C)[C@H](NC(=O)CNC(=O)[C@@H]1CCCN1C(=O)[C@H](Cc1ccccc1)NC(=O)[C@@H](N)Cc1ccccc1)C(=O)N[C@H](C(=O)N[C@@H](CCCCN)C(=O)N[C@H](C(=O)N[C@@H](C)C(=O)NCC(=O)N[C@@H](C)C(=O)N[C@H](C(=O)N[C@@H](CC(C)C)C(=O)N1CCC[C@H]1C(=O)N[C@H](C(=O)N[C@@H](C)C(=O)N[C@H](C(=O)N[C@@H](CS)C(=O)N[C@@H](C)C(=O)N[C@H](C(=O)N[C@H](C(=O)N[C@@H](CCCCN)C(=O)N[C@@H](CCCNC(=N)N)C(=O)N[C@@H](CS)C(=O)O)[C@@H](C)O)[C@@H](C)CC)[C@@H](C)CC)[C@@H](C)O)[C@@H](C)CC)C(C)C)[C@@H](C)CC [B1/2 COOH] (H-FFPGIIKVAGAILPTAICAITKRC-OH; N-terminus assumed)
MIC [1]: 12.5 µM (≈ 31.3 µg/mL)
MIC [2]: 67.5 µM (≈ 169 µg/mL)
MIC [3]: 25 µM (≈ 62.6 µg/mL)
MIC (MRSA ATCC 43300): 30 µM (≈ 75.1 µg/mL)
Activity against gram-negative bacteria (MIC range) (gram-negative bacteria): not with gram-negative bacteria
Percentage hemolysis at MIC (human erythrocytes): 25%
MIC (VRE ATCC 29212): 50 µM (≈ 125 µg/mL)

Reference: patent US20190298796A1, “Therapeutic Compositions from the Brevinin-1 Family of Peptides and Uses Thereof” (priority 2016, published 2019)
